Assays:
Test in all cases: relative viability (nuclei count vs DMSO), 5 days (fraction); higher = more cells survive
A-427 = system: A-427
How it was run: (§1)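 Relative viability is defined as nuclei in treated wells over nuclei in vehicle wells. Duplicate plates were run and medians reported. Lung cancer cell lines in 1536-well plates were dosed by pin tool one day after seeding, with one drug or with a fixed anchor-drug dose plus five library-drug doses (not always all listed) in √10 steps, and nuclei were counted after 5 days.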

H3255 = system: H3255
How it was run: as §1

HARA = system: HARA
How it was run: as §1

HCC-15 = system: HCC-15
How it was run: as §1

HCC-366 = system: HCC-366
How it was run: as §1

LXF-289 = system: LXF-289
How it was run: as §1

NCI-H1437 = system: NCI-H1437
How it was run: as §1

NCI-H1755 = system: NCI-H1755
How it was run: as §1

NCI-H1793 = system: NCI-H1793
How it was run: as §1

NCI-H1915 = system: NCI-H1915
How it was run: as §1

NCI-H1975 = system: NCI-H1975
How it was run: as §1

NCI-H2009 = system: NCI-H2009
How it was run: as §1

NCI-H2023 = system: NCI-H2023
How it was run: as §1

NCI-H2405 = system: NCI-H2405
How it was run: as §1

NCI-H3122 = system: NCI-H3122
How it was run: as §1

NCI-H441 = system: NCI-H441
How it was run: as §1

NCI-H460 = system: NCI-H460
How it was run: as §1

NCI-H596 = system: NCI-H596
How it was run: as §1

NCI-H650 = system: NCI-H650
How it was run: as §1

PC-14 = system: PC-14
How it was run: as §1

PC-3 [JPC-3] = system: PC-3 [JPC-3]
How it was run: as §1

SK-LU-1 = system: SK-LU-1
How it was run: as §1

UMC-11 = system: UMC-11
How it was run: as §1

`Cc1cnc(-c2cnc(NCCNc3ccc(C#N)cn3)nc2-c2ccc(Cl)cc2Cl)[nH]1` + C[C@]1(O)C[C@@H](c2nc(-c3ccc4ccc(-c5ccccc5)nc4c3)c3c(N)nccn32)C1 [Linsitinib] (partner 1 µM) gave a relative viability (A-427; first compound 0.08 µM) of 1.09, a relative viability (A-427; first compound 0.253 µM) of 1.12 and a relative viability (A-427; first compound 0.8 µM) of 1.11. It also gave a relative viability (A-427; first compound 2.53 µM) of 1.15, a relative viability (H3255; first compound 0.08 µM) of 1.15 and a relative viability (H3255; first compound 0.253 µM) of 0.884. It also gave a relative viability (H3255; first compound 0.8 µM) of 0.928, a relative viability (H3255; first compound 2.53 µM) of 0.944 and a relative viability (HARA; first compound 0.08 µM) of 1.1. For the same compound, the relative viability (HARA; first compound 0.253 µM) was 0.847, the relative viability (HARA; first compound 0.8 µM) was 0.921 and the relative viability (HARA; first compound 2.53 µM) was 0.933. The relative viability (HCC-15; first compound 0.08 µM) was 0.897, the relative viability (HCC-15; first compound 0.253 µM) was 0.811 and the relative viability (HCC-15; first compound 0.8 µM) was 0.8. The relative viability (HCC-15; first compound 2.53 µM) was 0.835, the relative viability (HCC-366; first compound 0.08 µM) was 0.694 and the relative viability (HCC-366; first compound 0.253 µM) was 0.557. For the same compound, the relative viability (HCC-366; first compound 0.8 µM) was 0.608, the relative viability (HCC-366; first compound 2.53 µM) was 0.28 and the relative viability (LXF-289; first compound 0.08 µM) was 0.965. It also gave a relative viability (LXF-289; first compound 0.253 µM) of 0.897, a relative viability (LXF-289; first compound 0.8 µM) of 1.01 and a relative viability (LXF-289; first compound 2.53 µM) of 0.984. For the same compound, the relative viability (NCI-H1437; first compound 0.08 µM) was 1.01, the relative viability (NCI-H1437; first compound 0.253 µM) was 0.972 and the relative viability (NCI-H1437; first compound 0.8 µM) was 1.03. The relative viability (NCI-H1437; first compound 2.53 µM) was 1.04, the relative viability (NCI-H1755; first compound 0.08 µM) was 1.03 and the relative viability (NCI-H1755; first compound 0.253 µM) was 0.856. The relative viability (NCI-H1755; first compound 0.8 µM) was 0.958, the relative viability (NCI-H1755; first compound 2.53 µM) was 0.991 and the relative viability (NCI-H1793; first compound 0.08 µM) was 1.16. The relative viability (NCI-H1793; first compound 0.253 µM) was 0.822, the relative viability (NCI-H1793; first compound 0.8 µM) was 0.809 and the relative viability (NCI-H1793; first compound 2.53 µM) was 0.916. For the same compound, the relative viability (NCI-H1915; first compound 0.08 µM) was 1.08, the relative viability (NCI-H1915; first compound 0.8 µM) was 1.11 and the relative viability (NCI-H1915; first compound 2.53 µM) was 1.08. The relative viability (NCI-H1975; first compound 0.08 µM) was 1, the relative viability (NCI-H1975; first compound 0.253 µM) was 0.847 and the relative viability (NCI-H1975; first compound 0.8 µM) was 0.836. For the same compound, the relative viability (NCI-H1975; first compound 2.53 µM) was 0.603, the relative viability (NCI-H2009; first compound 0.08 µM) was 1.21 and the relative viability (NCI-H2009; first compound 0.253 µM) was 1.14. For the same compound, the relative viability (NCI-H2009; first compound 0.8 µM) was 1.23, the relative viability (NCI-H2009; first compound 2.53 µM) was 1.1 and the relative viability (NCI-H2023; first compound 0.08 µM) was 0.779. The relative viability (NCI-H2023; first compound 0.253 µM) was 0.649, the relative viability (NCI-H2023; first compound 0.8 µM) was 0.794 and the relative viability (NCI-H2023; first compound 2.53 µM) was 1.12. The relative viability (NCI-H2405; first compound 0.08 µM) was 1.25, the relative viability (NCI-H2405; first compound 0.253 µM) was 0.856 and the relative viability (NCI-H2405; first compound 0.8 µM) was 0.999. The relative viability (NCI-H2405; first compound 2.53 µM) was 0.709, the relative viability (NCI-H3122; first compound 0.08 µM) was 1.04 and the relative viability (NCI-H3122; first compound 0.253 µM) was 0.949. It also gave a relative viability (NCI-H3122; first compound 0.8 µM) of 1.04, a relative viability (NCI-H3122; first compound 2.53 µM) of 0.997 and a relative viability (NCI-H441; first compound 0.08 µM) of 0.662. The relative viability (NCI-H441; first compound 0.253 µM) was 0.445, the relative viability (NCI-H441; first compound 0.8 µM) was 0.606 and the relative viability (NCI-H441; first compound 2.53 µM) was 0.519. For the same compound, the relative viability (NCI-H460; first compound 0.08 µM) was 0.918, the relative viability (NCI-H460; first compound 0.253 µM) was 0.623 and the relative viability (NCI-H460; first compound 0.8 µM) was 0.974. It also gave a relative viability (NCI-H460; first compound 2.53 µM) of 0.782, a relative viability (NCI-H596; first compound 0.08 µM) of 1.02 and a relative viability (NCI-H596; first compound 0.253 µM) of 1.11. It also gave a relative viability (NCI-H596; first compound 0.8 µM) of 1.06, a relative viability (NCI-H596; first compound 2.53 µM) of 1.07 and a relative viability (NCI-H650; first compound 0.08 µM) of 1.02. The relative viability (NCI-H650; first compound 0.253 µM) was 0.769, the relative viability (NCI-H650; first compound 0.8 µM) was 0.93 and the relative viability (NCI-H650; first compound 2.53 µM) was 0.712. The relative viability (PC-14; first compound 0.08 µM) was 0.946, the relative viability (PC-14; first compound 0.253 µM) was 0.896 and the relative viability (PC-14; first compound 0.8 µM) was 0.913. The relative viability (PC-14; first compound 2.53 µM) was 0.834, the relative viability (PC-3 [JPC-3]; first compound 0.08 µM) was 0.93 and the relative viability (PC-3 [JPC-3]; first compound 0.253 µM) was 0.858. For the same compound, the relative viability (PC-3 [JPC-3]; first compound 0.8 µM) was 0.943, the relative viability (PC-3 [JPC-3]; first compound 2.53 µM) was 0.964 and the relative viability (SK-LU-1; first compound 0.08 µM) was 1.13. For the same compound, the relative viability (SK-LU-1; first compound 0.253 µM) was 1.12, the relative viability (SK-LU-1; first compound 0.8 µM) was 1.32 and the relative viability (SK-LU-1; first compound 2.53 µM) was 1.09. The relative viability (UMC-11; first compound 0.08 µM) was 1.04, the relative viability (UMC-11; first compound 0.253 µM) was 1 and the relative viability (UMC-11; first compound 0.8 µM) was 1. It also gave a relative viability (UMC-11; first compound 2.53 µM) of 0.985.

Reference: the supplement of paper PMC10307832
